Activity calls are given as the source filed them.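 How the source made its calls: active means hERG current rise at or above blocker-only control mean plus 3 SD, readout 0 or more; inactive means the rest.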
The compounds below were run against Voltage-gated inwardly rectifying potassium channel KCNH2 (Homo sapiens) (UniProt Q12809) (assay: hERG tail current rescue from dofetilide, cell-based, Ionworks automated patch clamp, CHO-hERG, secondary (AID 2103)). Settings: dofetilide IC70, at 10 µM, stronger effect = higher value.
Sequence of Voltage-gated inwardly rectifying potassium channel KCNH2 (Homo sapiens) (Q12809 whole entry, looked up): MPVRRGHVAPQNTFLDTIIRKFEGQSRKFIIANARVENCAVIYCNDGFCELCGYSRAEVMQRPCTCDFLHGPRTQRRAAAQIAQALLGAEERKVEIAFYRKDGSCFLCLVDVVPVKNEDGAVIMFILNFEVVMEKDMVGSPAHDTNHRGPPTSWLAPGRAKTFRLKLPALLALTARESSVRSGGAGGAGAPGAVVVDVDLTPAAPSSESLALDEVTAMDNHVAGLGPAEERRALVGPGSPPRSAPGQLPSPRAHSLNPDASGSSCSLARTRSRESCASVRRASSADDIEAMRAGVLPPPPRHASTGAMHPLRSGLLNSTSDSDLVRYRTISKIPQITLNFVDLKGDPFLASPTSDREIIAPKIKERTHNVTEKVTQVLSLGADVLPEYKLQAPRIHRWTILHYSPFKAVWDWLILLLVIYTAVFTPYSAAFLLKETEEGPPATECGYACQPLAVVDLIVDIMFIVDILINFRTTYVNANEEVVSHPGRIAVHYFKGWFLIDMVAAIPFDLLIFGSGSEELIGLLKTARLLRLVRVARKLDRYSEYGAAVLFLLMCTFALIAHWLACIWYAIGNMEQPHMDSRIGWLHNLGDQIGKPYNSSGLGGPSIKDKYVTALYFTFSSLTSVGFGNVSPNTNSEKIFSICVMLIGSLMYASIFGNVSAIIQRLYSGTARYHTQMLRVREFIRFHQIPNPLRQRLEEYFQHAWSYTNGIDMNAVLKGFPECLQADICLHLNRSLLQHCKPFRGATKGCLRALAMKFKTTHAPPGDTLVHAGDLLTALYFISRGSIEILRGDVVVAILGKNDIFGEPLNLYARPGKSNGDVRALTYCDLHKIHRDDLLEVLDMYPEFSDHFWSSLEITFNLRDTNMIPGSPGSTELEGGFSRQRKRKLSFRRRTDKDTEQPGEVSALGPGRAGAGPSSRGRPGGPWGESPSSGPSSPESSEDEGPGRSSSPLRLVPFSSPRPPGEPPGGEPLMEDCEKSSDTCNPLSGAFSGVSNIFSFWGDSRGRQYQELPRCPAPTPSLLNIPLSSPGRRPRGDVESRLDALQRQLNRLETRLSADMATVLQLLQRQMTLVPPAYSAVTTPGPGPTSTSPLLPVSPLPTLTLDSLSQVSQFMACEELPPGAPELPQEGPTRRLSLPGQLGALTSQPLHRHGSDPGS

Row | Structure (SMILES) | current change vs dofetilide control, less the hit threshold
1 | Fc1ccc2nc(Nc3nc4c(F)cc(F)cc4s3)sc2c1 | -49% (inactive)
2 | CCOC(=O)N1CCN(C(=O)c2ccc(Cl)c(S(=O)(=O)Nc3ccccc3)c2)CC1 | -58.5% (inactive)
3 | CN(Cc1ccccc1)C(=O)CCc1ccccc1 | -53.5% (inactive)
4 | Cc1nonc1CN(C)C(=O)c1ccc(OC2CCN(Cc3ccccn3)CC2)cc1 | -69.9% (inactive)
5 | Cc1ccc(Cn2nnc3c(=O)n(CC(=O)N4CCCc5ccccc54)cnc32)cc1 | -41.2% (inactive)
6 | CC(C)Oc1c(Cl)cc(CNC(C)(C)CO)cc1Cl | -52.1% (inactive)
7 | CCOC(=O)C1CCN(S(=O)(=O)c2cccc3nonc23)CC1 | -37.7% (inactive)
8 | CCc1ccc(C(C)NC(=O)C2CCCC2)cc1 (centres undefined) | -41.5% (inactive)
9 | COC(=O)c1ccc(CSc2ncnc3sc(C)c(C)c23)o1 | -48.9% (inactive)
10 | O=C1C2CC=CCC2C(=O)N1c1ccc(Cc2ccncc2)cc1 (centres undefined) | -31.9% (inactive)
11 | Cc1ccc(C(=O)Nc2nc3ccccc3c(=O)s2)cc1 | -52.6% (inactive)
12 | CCCN(C(=O)c1ccco1)c1nnc(-c2ccncc2)s1 | -29.1% (inactive)
13 | CCOC(=O)c1c(C)[nH]c(C)c1S(=O)(=O)N1CCCCC1 | -31.9% (inactive)
14 | Cc1nc2ccccc2n1-c1ccccc1 | -51.1% (inactive)
15 | CC(=O)c1c(C)c2c(n1CCN(C)C)CCCC2 | -56.2% (inactive)
16 | Cc1ccc(C)c2sc(NC(=O)c3nc4ccccc4s3)nc12 | -46.9% (inactive)
17 | Cc1ccc(C(C#N)c2ccc3c(C(F)(F)F)cc(C(F)(F)F)nc3n2)cc1 (centres undefined) | -59.8% (inactive)
18 | CCOC(=O)Cc1nc2ccccc2o1 | -49.3% (inactive)
19 | COc1ccc(C(=O)Nc2ccccc2C(=O)O)cc1Cl | -54.3% (inactive)
20 | CC1CN(S(=O)(=O)c2ccc(-c3nc4ccccc4s3)cc2)CC(C)O1 (centres undefined) | -45% (inactive)
21 | CCc1ccc2nc(NC(=O)c3cc(C)on3)sc2c1 | -43.6% (inactive)
22 | NC(=O)C1CCN(C(=O)c2cc3c(s2)CCCC3)CC1 | -52.8% (inactive)
23 | N#Cc1c(NC(=O)c2cc(-n3cnnc3)ccc2Cl)sc2c1CCCC2 | -43.1% (inactive)
24 | CN(C(=O)c1ccc(Cl)c(S(=O)(=O)N2CCOCC2)c1)c1ccccc1C(=O)O | -64.9% (inactive)
25 | O=C(c1csc(Nc2ccccc2Cl)n1)N1CCCC1 | -45.9% (inactive)
26 | Clc1cccc(OCCCN2CCCC2)c1Cl | -77.4% (inactive)
27 | O=C(O)c1ccc(Cl)cc1Nc1nc2cc(Cl)ccc2o1 | -48.7% (inactive)
28 | CCOC(=O)N1CCN(C(=O)c2ccc(CN(c3ccc(C)c(C)c3)S(C)(=O)=O)cc2)CC1 | -30.1% (inactive)
29 | COC(=O)c1c(NS(=O)(=O)c2ccc3ccccc3c2)sc2c1CCCC2 | -46.2% (inactive)

Source: PubChem BioAssay AID2103 (Johns Hopkins Ion Channel Center, 2009)
